Series [1] in a line: Pharmacokinetic study of baicalin in HepG2 cells (intracellular concentrations by UPLC-MS/MS). In kind it is in vitro ADME, human. Particulars: human, intracellular; for AUC(0-t) at 100 μM / Cmax at 100 μM / half-life at 100 μM: HepG2 cells. The protocol: (§1) The samples were quantified by UPLC-MS/MS, which consisted of a Dionex Ultimate 3000 UPLC system (Thermo Fisher Scientific, Waltham, MA, USA) and a triple quadrupole tandem mass spectrometer (Thermo Fisher Scientific, Waltham, MA, USA). The mass spectrometry was performed using an ESI ion source and in positive ion mode. The chromatograms are shown in Figure S1 of the Supplementary Materials. The samples were analyzed by a Waters XBridge BEH C18 column (2.1 × 100 mm). Mobile phase A consists of acetonitrile, while mobile phase B consists of water containing 0.1% formic acid. The elution program was as follows: B was initially 90%, 0 to 9 min B decreased from 90% to 27%, and 9.1 min to 12 min increased from 27% to 90% B. The flow rate of the mobile phase was 0.3 mL/min, the temperature of the automatic injector was 5 °C, and the injection volume was 10 μL. The m/z for BG and B6G was 447 → 271, for baicalein m/z 271 → 123, and for genistein (IS) m/z 271 → 153. Other mass spectrometry parameters included sheath gas (Arb) pressure, 20 psi, and auxiliary gas (Arb) pressure, 2 psi; source voltage, 4.8 KV, and capillary voltage, 2.5 KV; and ion-transfer-tube temperature, 375 °C, and atomization temperature, 275 °C.
(§2) HepG2 cells were cultured at a density of 1×10^5 cells/mL in 12-well plates for 24 h to facilitate the conduct of cellular pharmacokinetic experiments. The old medium was aspirated and discarded, the wells were rinsed twice with PBS, and 1 mL of 100 μM baicalin and baicalin + PEG400 (0.25%, 0.5%, and 1%) was added into 12-well plates to initiate the timer. The culture was terminated after 0.25 h, 0.5 h, 1 h, 2 h, 4 h, 6 h, 8 h, 10 h, 12 h, and 24 h, respectively. Upon reaching the designated time for administration, the cell culture medium was removed, and the wells were washed with 1 mL of cold PBS solution. Subsequently, 240 μL of ultra-pure water were added to each well, and the sample was stored at −80 °C until analysis. The sample was subjected to sonication in an ice bath for 10 min in order to lyse the cells, thereby enabling the determination of the accumulated drug concentration within the cells. Subsequently, 20 μL of the cell lysate was collected, and the protein concentration was quantified using a BCA kit for normalization.
(§3) After repeated freeze-thaw lysis, 100 μL of cell samples were taken, and 300 μL of 0.2% formic acid acetonitrile (containing 200 ng/mL genistein) were added to the vortex for 10 min to precipitate proteins and then centrifuged at 14,000 r/min for 10 min. Then the supernatant was blown dry under nitrogen at 40 °C and then reconstituted with 200 μL of methanol and centrifuged at 14,000 rpm for 10 min. The supernatant was subjected to UPLC-MS/MS analysis.

The next series deals with HepG2 cells. The description is as above. Particulars: HepG2 cells. It counts as in vitro ADME, human. The procedure:
as §1, §2, §3

Setting [2] is: HepG2 cells given 100 μM baicalin + H PEG400 (1%).
The mark [3] stands for this setting: HepG2 cells given 100 μM baicalin + L PEG400 (0.25%).
Setting [4] is: HepG2 cells given 100 μM baicalin + M PEG400 (0.5%).
Setting [5] is: HepG2 cells given 100 μM baicalin alone (group BG, control).

The structures appear in SMILES notation.

From PMC11206988, “Study on the Effect of Pharmaceutical Excipient PEG400 on the Pharmacokinetics of Baicalin in Cells Based on MRP2, MRP3, and BCRP Efflux Transporters” (Pharmaceutics, 2024) come the findings set out here.

The term AUC(0-t) denotes exposure summed from dosing to a finite time, without extrapolation to infinity. Broadly, the Cmax is the maximum level reached in the sampled fluid or tissue. Usually half-life stands for how long it takes for the measured level to halve. For orientation: Tmax means the time at which the peak concentration occurs. Consider `O=C(O)[C@H]1O[C@@H](Oc2cc3oc(-c4ccccc4)cc(=O)c3c(O)c2O)[C@H](O)[C@@H](O)[C@@H]1O` [BG, Baicalein-7-O-β-D-glucuronide], for which the exposure AUC(0-t) at 100 μM was determined as 130 ± 5.26 µg·h/mL in series [1] (setting [2]); 107 ± 2.22 µg·h/mL in series [1] (setting [3]); 112 ± 3.99 µg·h/mL in series [1] (setting [4]); 76 ± 2.57 µg·h/mL in series [1] (HepG2 cells given 100 μM baicalin alone (group BG, control), 0.25-24 h). Also, the Cmax at 100 μM came out at 10800 ± 350 ng/mL in series [1] (setting [2]), 10200 ± 1480 ng/mL in series [1] (setting [3]), 11200 ± 1500 ng/mL in series [1] (setting [4]) and 7840 ± 110 ng/mL in series [1] (setting [5]). Moreover, the half-life at 100 μM is 5.43 ± 0.91 h in series [1] (setting [2]), 9.91 ± 3.76 h in series [1] (setting [3]), 6.02 ± 4.23 h in series [1] (setting [4]) and 6.77 ± 5.92 h in series [1] (setting [5]). Moreover, in series [1] (setting [5]), the Tmax at 100 μM stood at 6 h. Moreover, the “AUC0–t increase compared with the control group” value in the series on HepG2 cells (baicalin + high PEG400 (1%) vs baicalin alone) turned out to be 1.72 fold; in the series with HepG2 cells (baicalin + low PEG400 (0.25%) vs baicalin alone), 1.41 fold; with HepG2 cells (baicalin + medium PEG400 (0.5%) vs baicalin alone), 1.48 fold.
